Positions of bridges follow the written chain, without caps; N, C: chain ends. Non-standard residues stand in square brackets, D forms with d. Residues, ends and D or L forms follow the SMILES beside them. R8 = C=CCCCCCC[C@@](C)(N)C(=O)O; S5 = C=CCCC[C@](C)(N)C(=O)O
What was measured:
[1] = circular dichroism; details: 10 mM phosphate buffer; pH 7.4; ns °C; 100 uM
[2] = tested on: E. coli; assay type: cell-based, Escherichia coli; details: Table 1; microbroth dilution, refined MHB, 20-24 hours at 37° C.
Experimental: Antimicrobial Activity Assay The following microbroth dilution protocol was adapted to determine the MIC of each peptide. First, Mueller-Hinton broth (MHB) was passed through an anion exchange column to remove polyanionic species and generate refined MHB. This refined broth was then used in the standard microbroth dilution protocol devised by Hancock et al. for 96 well plates. […] Briefly, bacterial cells were grown overnight in refined MHB at 37° C. and then diluted and allowed to grow again for several hours. Serial dilutions of peptide stocks in water (10 μl) were prepared using clear round-bottom polypropylene 96-well plates. Then 90 μl of bacteria in refined MHB was added to give a final inoculum of 5×10^5 CFU/ml. The plates were then covered with porous tape to reduce evaporation, and incubated for 20-24 hours at 37° C.

[3] = tested on: human red blood cells (RBCs); assay type: cell-based; details: red cells of human, 1 h, 50
Description: One of the key obstacles that have long impeded the use of AMPs in systemic infections such as sepsis is their tendency to lyse human cells, such as red blood cells (RBCs). Thus, it is critical to minimize hemolytic activity as much as possible to achieve a therapeutic window. […] Of note, in those circumstances where hydrocarbon staples increase hemolytic activity due to increasing hydrophobicity, the alkene moiety can be modified, e.g., by dihydroxylation, to install hydrophilic residues and potentially mitigate hemolysis.
Hemolytic Activity Assay For the determination of hemolytic activity, the following protocol was applied: human blood samples were centrifuged to isolate red blood cells (RBCs), which were then washed and suspended in phosphate-buffered saline to yield a 1% (v/v) suspension. This suspension was then added to serial dilutions of peptide stocks in water in clear round-bottom polypropylene 96-well plates and the plates incubated for 1 hour at 37° C. After incubation, the plates were centrifuged and the supernatant isolated to determine the amount of hemoglobin released using a spectrophotometer (570 nm). The minimum hemolytic concentration (MHC) was determined by assessing the peptide concentration at which there was less than 1% hemoglobin release.

SMILES | helicity [1] [%] | Antimicrobial Activity NIC (μg/ml) E. coli [2] [µg/mL] | % Hemolysis at 50 μg/ml [3] [%]
CC(C)C[C@H](NC(=O)CNC(=O)[C@H](C)NC(=O)[C@H](CCCNC(=N)N)NC(=O)[C@H](CO)NC(=O)[C@H](CO)NC(=O)[C@H](CCCNC(=N)N)NC(=O)[C@@H](N)[C@@H](C)O)C(=O)N[C@@H](CCC(N)=O)C(=O)N[C@@H](Cc1c[nH]c2ccccc12)C(=O)N1CCC[C@H]1C(=O)N[C@H](C(=O)NCC(=O)N[C@@H](CCCNC(=N)N)C(=O)N[C@H](C(=O)N[C@@H](Cc1c[nH]cn1)C(=O)N[C@@H](CCCNC(=N)N)C(=O)N[C@@H](CC(C)C)C(=O)N[C@@H](CC(C)C)C(=O)N[C@@H](CCCNC(=N)N)C(=O)N[C@@H](CCCCN)C(N)=O)C(C)C)C(C)C | 0 | – | –
CC(C)C[C@H](NC(=O)CNC(=O)[C@H](C)NC(=O)[C@H](CCCNC(=N)N)NC(=O)[C@H](CO)NC(=O)[C@H](CO)NC(=O)[C@H](CCCNC(=N)N)NC(=O)[C@@H](N)[C@@H](C)O)C(=O)N[C@@H](CCC(N)=O)C(=O)N[C@@H](Cc1c[nH]c2ccccc12)C(=O)N1CCC[C@H]1C(=O)N[C@H](C(=O)NCC(=O)N[C@@H](CCCNC(=N)N)C(=O)N[C@H](C(=O)N[C@@H](Cc1c[nH]cn1)C(=O)N[C@@]1(C)CCCC=CCCC[C@@](C)(C(N)=O)NC(=O)[C@H](CCCNC(=N)N)NC(=O)[C@H](CC(C)C)NC(=O)[C@H](CC(C)C)NC1=O)C(C)C)C(C)C [BFStap(i + 4)1] (H-TRSSRAGLQWPVGRVH[S5]LLR[S5]-NH2; staple 17-21; N-terminus and C-terminus assumed) | – | 50.0 | 2.2
CC(C)C[C@H](NC(=O)CNC(=O)[C@H](C)NC(=O)[C@H](CCCNC(=N)N)NC(=O)[C@H](CO)NC(=O)[C@H](CO)NC(=O)[C@H](CCCNC(=N)N)NC(=O)[C@@H](N)[C@@H](C)O)C(=O)N[C@@H](CCC(N)=O)C(=O)N[C@@H](Cc1c[nH]c2ccccc12)C(=O)N1CCC[C@H]1C(=O)N[C@H](C(=O)NCC(=O)N[C@@H](CCCNC(=N)N)C(=O)N[C@H](C(=O)N[C@@]1(C)CCCC=CCCC[C@@](C)(C(=O)N[C@@H](CCCCN)C(N)=O)NC(=O)[C@H](CC(C)C)NC(=O)[C@H](CC(C)C)NC(=O)[C@H](CCCNC(=N)N)NC1=O)C(C)C)C(C)C [BFStap(i + 4)2] (H-TRSSRAGLQWPVGRV[S5]RLL[S5]K-NH2; staple 16-20) | 3.2 | – | 12.6
CC(C)C[C@H](NC(=O)CNC(=O)[C@H](C)NC(=O)[C@H](CCCNC(=N)N)NC(=O)[C@H](CO)NC(=O)[C@H](CO)NC(=O)[C@H](CCCNC(=N)N)NC(=O)[C@@H](N)[C@@H](C)O)C(=O)N[C@@H](CCC(N)=O)C(=O)N[C@@H](Cc1c[nH]c2ccccc12)C(=O)N1CCC[C@H]1C(=O)N[C@H](C(=O)NCC(=O)N[C@@H](CCCNC(=N)N)C(=O)N[C@@]1(C)CCCC=CCCC[C@@](C)(C(=O)N[C@@H](CCCNC(=N)N)C(=O)N[C@@H](CCCCN)C(N)=O)NC(=O)[C@H](CC(C)C)NC(=O)[C@H](CCCNC(=N)N)NC(=O)[C@H](Cc2c[nH]cn2)NC1=O)C(C)C [BFStap(i + 4)3] (H-TRSSRAGLQWPVGR[S5]HRL[S5]RK-NH2; staple 15-19; N-terminus and C-terminus assumed) | 4.3 | 25.0 | 2.9
CC(C)C[C@H](NC(=O)CNC(=O)[C@H](C)NC(=O)[C@H](CCCNC(=N)N)NC(=O)[C@H](CO)NC(=O)[C@H](CO)NC(=O)[C@H](CCCNC(=N)N)NC(=O)[C@@H](N)[C@@H](C)O)C(=O)N[C@@H](CCC(N)=O)C(=O)N[C@@H](Cc1c[nH]c2ccccc12)C(=O)N1CCC[C@H]1C(=O)N[C@H](C(=O)NCC(=O)N[C@@]1(C)CCCC=CCCC[C@@](C)(C(=O)N[C@@H](CC(C)C)C(=O)N[C@@H](CCCNC(=N)N)C(=O)N[C@@H](CCCCN)C(N)=O)NC(=O)[C@H](CCCNC(=N)N)NC(=O)[C@H](Cc2c[nH]cn2)NC(=O)[C@H](C(C)C)NC1=O)C(C)C [BFStap(i + 4)4] (H-TRSSRAGLQWPVG[S5]VHR[S5]LRK-NH2; staple 14-18; N-terminus and C-terminus assumed) | 6 | 29.2 | 2.9
CC(C)C[C@H](NC(=O)CNC(=O)[C@H](C)NC(=O)[C@H](CCCNC(=N)N)NC(=O)[C@H](CO)NC(=O)[C@H](CO)NC(=O)[C@H](CCCNC(=N)N)NC(=O)[C@@H](N)[C@@H](C)O)C(=O)N[C@@H](CCC(N)=O)C(=O)N[C@@H](Cc1c[nH]c2ccccc12)C(=O)N1CCC[C@H]1C(=O)N[C@H](C(=O)N[C@@]1(C)CCCC=CCCC[C@@](C)(C(=O)N[C@@H](CC(C)C)C(=O)N[C@@H](CC(C)C)C(=O)N[C@@H](CCCNC(=N)N)C(=O)N[C@@H](CCCCN)C(N)=O)NC(=O)[C@H](Cc2c[nH]cn2)NC(=O)[C@H](C(C)C)NC(=O)[C@H](CCCNC(=N)N)NC1=O)C(C)C [BFStap(i + 4)5] (H-TRSSRAGLQWPV[S5]RVH[S5]LLRK-NH2; staple 13-17; N-terminus and C-terminus assumed) | 8.8 | 66.7 | 3.0
CC(C)C[C@H](NC(=O)CNC(=O)[C@H](C)NC(=O)[C@H](CCCNC(=N)N)NC(=O)[C@H](CO)NC(=O)[C@H](CO)NC(=O)[C@H](CCCNC(=N)N)NC(=O)[C@@H](N)[C@@H](C)O)C(=O)N[C@@H](CCC(N)=O)C(=O)N[C@@H](Cc1c[nH]c2ccccc12)C(=O)N1CCC[C@H]1C(=O)N[C@@]1(C)CCCC=CCCC[C@@](C)(C(=O)N[C@@H](CCCNC(=N)N)C(=O)N[C@@H](CC(C)C)C(=O)N[C@@H](CC(C)C)C(=O)N[C@@H](CCCNC(=N)N)C(=O)N[C@@H](CCCCN)C(N)=O)NC(=O)[C@H](C(C)C)NC(=O)[C@H](CCCNC(=N)N)NC(=O)CNC1=O [BFStap(i + 4)6] (H-TRSSRAGLQWP[S5]GRV[S5]RLLRK-NH2; staple 12-16) | – | – | 10.0
CC(C)C[C@H](NC(=O)CNC(=O)[C@H](C)NC(=O)[C@H](CCCNC(=N)N)NC(=O)[C@H](CO)NC(=O)[C@H](CO)NC(=O)[C@H](CCCNC(=N)N)NC(=O)[C@@H](N)[C@@H](C)O)C(=O)N[C@@H](CCC(N)=O)C(=O)N[C@@H](Cc1c[nH]c2ccccc12)C(=O)N1CCC[C@H]1C(=O)N[C@]1(C)CCCCCCC=CCCC[C@@](C)(C(=O)N[C@@H](CCCNC(=N)N)C(=O)N[C@@H](CCCCN)C(N)=O)NC(=O)[C@H](CC(C)C)NC(=O)[C@H](CCCNC(=N)N)NC(=O)[C@H](Cc2c[nH]cn2)NC(=O)[C@H](C(C)C)NC(=O)[C@H](CCCNC(=N)N)NC(=O)CNC1=O [BFStap(i + 7)3] (H-TRSSRAGLQWP[R8]GRVHRL[S5]RK-NH2; staple 12-19; N-terminus and C-terminus assumed) | – | 29.2 | 6.1
CC(C)C[C@H](NC(=O)[C@H](CC(C)C)NC(=O)[C@H](CCCNC(=N)N)NC(=O)[C@H](Cc1c[nH]cn1)NC(=O)[C@]1(C)CCCC=CCCCCCC[C@@](C)(NC(=O)CNC(=O)[C@H](C)NC(=O)[C@H](CCCNC(=N)N)NC(=O)[C@H](CO)NC(=O)[C@H](CO)NC(=O)[C@H](CCCNC(=N)N)NC(=O)[C@@H](N)[C@@H](C)O)C(=O)N[C@@H](CCC(N)=O)C(=O)N[C@@H](Cc2c[nH]c3ccccc23)C(=O)N2CCC[C@H]2C(=O)N[C@@H](C(C)C)C(=O)NCC(=O)N[C@@H](CCCNC(=N)N)C(=O)N1)C(=O)N[C@@H](CCCNC(=N)N)C(=O)N[C@@H](CCCCN)C(N)=O [BFStap(i + 7)5] (H-TRSSRAG[R8]QWPVGR[S5]HRLLRK-NH2; staple 8-15; N-terminus and C-terminus assumed) | – | 52.1 | 6.8
CC(C)C[C@@H]1NC(=O)CNC(=O)[C@H](C)NC(=O)[C@](C)(NC(=O)[C@H](CO)NC(=O)[C@H](CO)NC(=O)[C@H](CCCNC(=N)N)NC(=O)[C@@H](N)[C@@H](C)O)CCCCCCC=CCCC[C@@](C)(C(=O)NCC(=O)N[C@@H](CCCNC(=N)N)C(=O)N[C@H](C(=O)N[C@@H](Cc2c[nH]cn2)C(=O)N[C@@H](CCCNC(=N)N)C(=O)N[C@@H](CC(C)C)C(=O)N[C@@H](CC(C)C)C(=O)N[C@@H](CCCNC(=N)N)C(=O)N[C@@H](CCCCN)C(N)=O)C(C)C)NC(=O)[C@@H]2CCCN2C(=O)[C@H](Cc2c[nH]c3ccccc23)NC(=O)[C@H](CCC(N)=O)NC1=O [BFStap(i + 7)8] (H-TRSS[R8]AGLQWP[S5]GRVHRLLRK-NH2; staple 5-12) | 0 | – | 3.9
CC(C)C[C@H](NC(=O)CNC(=O)[C@H](C)NC(=O)[C@H](CCCNC(=N)N)NC(=O)[C@H](CO)NC(=O)[C@H](CO)NC(=O)[C@H](CCCNC(=N)N)NC(=O)[C@@H](N)[C@@H](C)O)C(=O)N[C@@H](CCC(N)=O)C(=O)N[C@@H](Cc1c[nH]c2ccccc12)C(=O)N1CCC[C@H]1C(=O)N[C@H](C(=O)NCC(=O)N[C@@H](CCCNC(=N)N)C(=O)N[C@H](C(=O)N[C@@H](Cc1cnc[nH]1)C(=O)N[C@@H](CCCNC(=N)N)C(=O)N[C@@H](CC(C)C)C(=O)N[C@@H](CC(C)C)C(=O)N[C@@H](CCCNC(=N)N)C(=O)N[C@@H](CCCCN)C(=O)O)C(C)C)C(C)C [Buforin II(F10W), reference compound] | – | >800 | 2.7

From patent US12391733B2, “Stapled intracellular-targeting antimicrobial peptides to treat infection” (priority 2016, dated 2025)
